Test results as given in patent publication US6384261B1, “Phosphoramidates, phosphinic amides and related compounds and the use thereof to modulate the activity of endothelin” (Texas Biotechnology Corporation, priority 1996, dated 2002).
Where two headings read alike, the source gives them in different places.

Legend:
human ETA receptors = biological target: T1, human ETA receptors (Homo sapiens, UniProt P25101); assay: Binding Test #1: inhibition of 125I-endothelin-1 binding to ETA receptors (TE 671 cell membranes)
T1 construct: endogenous in cells; host or cells: TE 671 cells (ATCC HTB 139), membrane preparation
T1 sequence (P25101 21-427): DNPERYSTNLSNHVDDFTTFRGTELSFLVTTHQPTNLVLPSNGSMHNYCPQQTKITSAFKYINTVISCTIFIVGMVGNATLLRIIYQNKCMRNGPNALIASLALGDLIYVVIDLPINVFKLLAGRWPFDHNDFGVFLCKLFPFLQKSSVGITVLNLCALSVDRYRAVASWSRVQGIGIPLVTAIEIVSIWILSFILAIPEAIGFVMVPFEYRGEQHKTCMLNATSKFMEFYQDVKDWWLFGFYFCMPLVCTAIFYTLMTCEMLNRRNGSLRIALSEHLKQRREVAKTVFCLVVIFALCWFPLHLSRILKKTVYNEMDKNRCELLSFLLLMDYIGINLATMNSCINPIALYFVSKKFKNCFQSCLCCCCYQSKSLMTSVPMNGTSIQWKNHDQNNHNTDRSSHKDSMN
From the text: (§1) Compounds that are potential endothelin antagonists are identified by testing their ability to compete with ^125I-labeled ET-1 for binding to human ETA receptors or ETB receptors present on isolated cell membranes. The effectiveness of the test compound as an antagonist or agonist of the biological tissue response of endothelin can also be assessed by measuring the effect on endothelin induced contraction of isolated rat thoracic aortic rings. The ability of the compounds to act as antagonists or agonists for ETB receptors can be assessed by testing the ability of the compounds to inhibit endothelin-1 induced prostacyclin release from cultured bovine aortic endothelial cells.
TE 671 cells (ATCC Accession No. HTB 139) express ETA receptors. These cells were grown to confluence in T-175 flasks. Cells from multiple flasks were collected by scraping, pooled and centrifuged for 10 min at 190×g. The cells were resuspended in phosphate buffered saline (PBS) containing 10 mM EDTA using a Tenbroeck homogenizer. The suspension was centrifuged at 4° C. at 57,800×g for 15 min, the pellet was resuspended in 5 ml of buffer A (5 mM HEPES buffer, pH 7.4 containing aprotinin (100 KIU/ml)) and then frozen and thawed once. 5 ml of Buffer B (5 mM HEPES Buffer, pH 7.4 containing 10 mM MnCl2 and 0.001% deoxyribonuclease Type 1) was added, the suspension mixed by inversion and then incubated at 37° C. for 30 minutes. The mixture was centrifuged at 57,800×g as described above, the pellet washed twice with buffer A and then resuspended in buffer C (30 mM HEPES buffer, pH 7.4 containing aprotinin (100 KIU/ml) to give a final protein concentration of 2 mg/ml and stored at −70° C. until use.
The membrane suspension was diluted with binding buffer (30 mM HEPES buffer, pH 7.4 containing 150 mM NaCl, 5 mM MgCl2, 0.5% Bacitracin) to a concentration of 8 μg/50 μl. ^125I-endothelin-1 (3,000 cpm, […]) was added to 50 μL of either: (A) endothelin-1 (for non specific binding) to give a final concentration 80 nM); (B) binding buffer for total binding); or (C) a test compound (final concentration 1 nM to 100 μM). The membrane suspension (50 μL), containing up to 8 μg of membrane protein, was added to each of (A), (B), or (C). Mixtures were shaken, and incubated at 4° C. for 16-18 hours, and then centrifuged at 4° C. for 25 min at 2,500×g. Alternatively, the incubation can be conducted at other temperatures, such as 24° C. When incubated at 24° C., the IC50 concentrations are 2- to 10-fold higher than when the incubation is conducted at 4° C.
The supernatant, containing unbound radioactivity, was decanted and the pellet counted on a Genesys multiwell gamma counter. The degree of inhibition of binding (D) was calculated according to the following equation: [formula]
Each test was generally performed in triplicate.

human ETB receptor = biological target: T2, human ETB receptor (Homo sapiens, UniProt P24530); assay: Binding Test #2: inhibition of 125I-endothelin-1 binding to ETB receptors (transfected COS7 cell membranes)
T2 construct: expressed in transfected cells; host or cells: COS7 cells, membrane preparation
T2 sequence (P24530 27-442): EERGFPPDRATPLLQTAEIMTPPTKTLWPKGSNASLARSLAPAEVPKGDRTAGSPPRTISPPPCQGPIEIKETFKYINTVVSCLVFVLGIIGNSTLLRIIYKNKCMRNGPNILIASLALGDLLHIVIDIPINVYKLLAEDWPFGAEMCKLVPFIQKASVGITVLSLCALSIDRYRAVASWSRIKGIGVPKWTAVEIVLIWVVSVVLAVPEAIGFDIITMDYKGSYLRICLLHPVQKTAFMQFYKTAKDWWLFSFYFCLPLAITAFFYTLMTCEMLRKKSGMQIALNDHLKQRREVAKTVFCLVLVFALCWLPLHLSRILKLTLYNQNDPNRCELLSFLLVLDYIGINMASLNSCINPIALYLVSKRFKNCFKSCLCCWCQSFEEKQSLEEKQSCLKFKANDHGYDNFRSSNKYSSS
From the text: as §1
COS7 cells were transfected with DNA encoding the ETB receptor, The resulting cells, which express the human ETB receptor, were grown to confluence in T-150 flasks. Membrane was prepared as described above. The binding assay was performed as described above using the membrane preparation diluted with binding buffer to a concentration of 1 μg/50 μl.
Briefly, the COS7 cells, described above, that had been transfected with DNA encoding the ETB receptor and express the human ETB receptor on their surfaces were grown to confluence in T-175 flasks. Cells from multiple flasks were collected by scraping, pooled and centrifuged for 10 min at 190×g. The cells were resuspended in phosphate buffered saline (PBS) containing 10 mM EDTA using a Tenbroeck homogenizer. The suspension was centrifuged at 4° C. 57,800×g for 15 min, the pellet was resuspended in 5 ml of buffer A (5 mM HEPES buffer, pH 7.4 containing aprotinin (100 KIU/ml)) and then frozen and thawed once. Five ml of Buffer B (5 mM HEPES Buffer, pH 7.4 containing 10 mM MnCl2 and 0.001% deoxyribonuclease Type 1) was added, the suspension mixed by inversion and then incubated at 37° C. for 30 minutes. The mixture was centrifuged at 57,800×g as described above, the pellet washed twice with buffer A and then resuspended in buffer C (30 mM HEPES buffer, pH 7.4 containing aprotinin (100 KIU/ml) to give a final protein concentration of 2 mg/ml.
The binding assay was performed as described above using the membrane preparation diluted to give 1 μg/50 μl of binding buffer.

ETA receptor = conditions: read-out: IC50, inhibition of 125I-labelled endothelin-1 binding, cited from earlier work
ETB receptors = conditions: concentrations up to 100 μM; cited from earlier work
isolated vascular strips = conditions: read-out: EC50, contractile agent; cited from earlier work
ETA and ETB receptors = assay: Summary statements on IC50 for ETA and ETB receptors / endothelin antagonist activity; format: binding, human; conditions: ETA versus ETB
From the text: as §1
The membrane suspension was diluted with binding buffer (30 mM HEPES buffer, pH 7.4 containing 150 mM NaCl, 5 mM MgCl2, 0.5% Bacitracin) to a concentration of 8 μg/50 μl. ^125I-endothelin-1 (3,000 cpm, […]) was added to 50 μL of either: (A) endothelin-1 (for non specific binding) to give a final concentration 80 nM); (B) binding buffer for total binding); or (C) a test compound (final concentration 1 nM to 100 μM). The membrane suspension (50 μL), containing up to 8 μg of membrane protein, was added to each of (A), (B), or (C). […]
The IC50 for each of the compounds of the preceding Examples for ETA and ETB receptors has been measured. […]

[1] = incubation at 4° C., results generally from 1, 2, or 3 experiments, read-out: ETA (μM) IC50
[2] = incubation at 4° C., results generally from 1, 2, or 3 experiments, read-out: ETB (μM) IC50

CCOP(=O)(Nc1onc(C)c1Br)OCC [N-(4-bromo-3-methyl-5-isoxazolyl)diethylphosphoramidate]
IC50 (human ETA receptors): 20 µM | IC50 (human ETB receptor): > 100 µM

cyclo(D-Glu-L-Ala-allo-D-lle-L-Leu-D-Trp) [BE-18257B]
IC50 (ETA receptor; aortic smooth muscle): 1400 nM | IC50 (ETA receptor; cultured aortic smooth muscle cells): 500 nM | IC50 (ETA receptor; ventricle membranes): 800 nM | inhibition of binding to receptors in tissues in which ETB receptors predominate (ETB receptors): fails to inhibit binding

endothelin-1: potent twenty-one amino acid peptide vasoconstrictor
EC50 (isolated vascular strips): 0.4 nM

Cc1noc(NP(=O)(Oc2ccccc2)Oc2ccccc2)c1Br [N-(4-bromo-3-methyl-5-isoxazolyl)diphenylphosphoramidate]
IC50 for ETA receptors substantially less than for ETB receptors (selectivity) (ETA and ETB receptors): 10 to 100 fold | IC50 (human ETA receptors): 0.58 µM | IC50 (human ETB receptor): 77 µM

Cc1noc(NP(=O)(Oc2ccccc2)Oc2ccccc2)c1C [N-(3,4-dimethyl-5-isoxazolyl)diphenylphosphoramidate]
IC50 (human ETA receptors): 2.5 µM | IC50 (human ETB receptor): > 100 µM

Cc1noc(NP(=O)(c2ccccc2)c2ccccc2)c1Br [N-(4-bromo-3-methyl-5-isoxazolyl)diphenylphosphinic Amide]
IC50 (human ETA receptors; [1]): 0.84 µM | IC50 (human ETB receptor; [2]): 85 µM

Cc1noc(NP(=O)(c2ccccc2)c2ccccc2)c1C [N-(3,4-dimethyl-5-isoxazolyl)diphenylphosphinic Amide]
IC50 (human ETA receptors; [1]): 7.1 µM | IC50 (human ETB receptor; [2]): > 100 µM
